Reference: the NIST ThermoML archive (doi:10.1016/j.jct.2012.08.033)
Numbers after ± are expanded uncertainties.

Tests used:
[1] = Liquid, vibrating tube
[2] = xn = mol fraction of the nth substance listed; settings: Liquid, vibrating tube, x1 = 1

Row | mass density ([1]; 293.28 K, 100.7 kPa) [kg/m3] | mass density ([1]; 313.3 K, 78.5 kPa) [kg/m3] | mass density ([2]; 293.28 K, 100.7 kPa) [kg/m3] | mass density ([2]; 313.3 K, 78.5 kPa) [kg/m3] | SMILES
1 | 998.33 ± 2 | 992.09 ± 2 | – | – | O [water]
2 | – | – | 998.33 ± 2 | 992.09 ± 2 | O [water] + C1CCOC1
